Article PMC8357188 (Nature biomedical engineering, 2020)

System: porcine jejunum tissue
Assay: GI-TRIS intestinal transport experiments
Assay type: in vitro ADME, pig

increase in intestinal transport when formulated with polyethyleneimine: limited increase
Substance: carbetocin acetate
